Measurements reported in patent US7335723B2, “Melanin-concentrating hormone antagonists” (priority 2001, dated 2008).
Blank lines part the entries; values can stand above or below the compound they belong to. Where a SMILES comes first, the peptide text is derived from it. Bridges are numbered along the chain shown (N, C = ends). [ ]: non-standard residue; d: D form. Ava = NCCCCC(=O)O

Experiments:
human MCH-2R [1] = biological target: T1, human MCH-2R (Homo sapiens, UniProt Q969V1); test: MCH-2R binding assay, inhibition of [125I]-human MCH binding to membranes; design: expressed in transfected cells; host or cells: 293-AEQ17 (aequorin-expressing HEK-293 reporter line); conditions: inhibition of [125I]-human MCH (Phe13, Tyr19) binding, cell membranes
T1 sequence (Q969V1 whole entry): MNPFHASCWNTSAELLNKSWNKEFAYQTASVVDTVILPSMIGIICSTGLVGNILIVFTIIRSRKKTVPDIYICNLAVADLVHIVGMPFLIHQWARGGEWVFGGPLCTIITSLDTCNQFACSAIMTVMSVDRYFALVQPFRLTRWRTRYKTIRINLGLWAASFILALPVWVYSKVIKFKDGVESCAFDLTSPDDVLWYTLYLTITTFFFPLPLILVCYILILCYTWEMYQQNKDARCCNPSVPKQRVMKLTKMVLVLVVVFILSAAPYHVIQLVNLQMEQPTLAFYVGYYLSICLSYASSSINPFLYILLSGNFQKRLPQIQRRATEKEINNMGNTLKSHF

human MCH-1R = human MCH-1R (Homo sapiens, UniProt Q99705); test: MCH-1R binding assay, inhibition of [125I]-human MCH binding to membranes
Chain of human MCH-1R (Q99705 whole entry): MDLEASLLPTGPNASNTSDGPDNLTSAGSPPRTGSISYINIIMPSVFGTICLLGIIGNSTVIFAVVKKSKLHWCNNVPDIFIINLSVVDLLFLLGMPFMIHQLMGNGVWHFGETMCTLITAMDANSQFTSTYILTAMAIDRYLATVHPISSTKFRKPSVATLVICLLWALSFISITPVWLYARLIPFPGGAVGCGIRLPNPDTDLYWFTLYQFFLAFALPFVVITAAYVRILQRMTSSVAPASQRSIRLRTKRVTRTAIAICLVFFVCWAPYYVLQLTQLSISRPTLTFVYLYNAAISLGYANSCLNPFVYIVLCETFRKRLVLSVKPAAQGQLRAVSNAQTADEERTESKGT

rat MCH-1R [2] = biological target: T2, rat MCH-1R (Rattus norvegicus, UniProt P97639); test: Aequorin bioluminescence functional assay, MCH-1R agonist activity; conditions: for MCH-1R Agonist Activation %: 293-AEQ17 cells expressing rat MCH-1R
T2 sequence (P97639 whole entry): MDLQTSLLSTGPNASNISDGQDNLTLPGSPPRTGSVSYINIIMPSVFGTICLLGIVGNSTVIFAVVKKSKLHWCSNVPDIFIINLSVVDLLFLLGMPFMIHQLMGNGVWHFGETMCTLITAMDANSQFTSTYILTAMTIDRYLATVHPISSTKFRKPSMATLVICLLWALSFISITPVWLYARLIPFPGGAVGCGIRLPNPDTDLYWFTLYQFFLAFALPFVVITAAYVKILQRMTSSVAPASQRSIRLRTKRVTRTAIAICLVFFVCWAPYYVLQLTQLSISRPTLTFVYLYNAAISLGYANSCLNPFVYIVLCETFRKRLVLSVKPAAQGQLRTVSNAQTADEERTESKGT

human MCH-2R [3] = biological target: T1, human MCH-2R; test: Aequorin bioluminescence functional assay, MCH-2R agonist activity; conditions: for MCH-2R Agonist Activation %: 293-AEQ17 cells expressing human MCH-2R
rat MCH-1R [4] = biological target: T2, rat MCH-1R; test: Antagonist assay, 293-AEQ17 cells expressing rat MCH-1R; assay type: cell-based; design: expressed in transfected cells; host or cells: 293-AEQ17 (aequorin-expressing HEK-293 reporter line); conditions: for Kb: determined per Trends in Pharmacol. Sci. 14:237-239, 1993
Protocol: Cells were grown in DMEM (high glucose) supplemented with 10% FBS (Hyclone), 500 μg/ml G418, 200 μg/ml hygromycin and 25 mM HEPES in T75 flasks.
The assay itself involved charging apoaequorin with coelenterazine cp(Molecular Probes, C-14260) and was performed as follows:
1. Confluent T75 flasks are rinsed 1× with 12 ml Hams F12 medium+300 μM glutathione+0.1% FBS.
2. The cells were charged by adding 8 ml Hams F12+0.1% FBS+300 μM glutathione+10 μM coelenterazine, incubate at 37° C. for 1 hour.
4. ECB (6 ml) is added to the flask and the cells are dissociated with a rubber-tipped scraper, centrifuged for 5 minutes at 2500 rpm and the cell pellet resuspended in 5 ml ECB. The cells are counted and diluted to 5×10^5/ml.
Binding and agonist activity at the MCH-1R and MCH-2R was determined as described in Examples 2 and 3. Antagonist IC50 was determined as described in Example 4. Kb was determined using the procedures described in Trends in Pharmacol. Sci. 14:237-239, 1993.

SMILES: CSCC[C@@H]1NC(=O)[C@@H](NC(=O)CCCNC(=N)N)CSSC[C@@H](C(N)=O)NC(=O)CCCCNC(=O)CCCCNC(=O)[C@H](Cc2ccc(O)cc2)NC(=O)[C@H](C(C)C)NC(=O)[C@H](CCCNC(=N)N)NC(=O)CNC(=O)[C@H](CC(C)C)NC1=O [SEQ. ID. NO. 12]
- IC50 (human MCH-2R [1]): 4000 nM
- IC50 (human MCH-1R): 8 nM
- EC50 (rat MCH-1R [2]): > 10000 nM
- MCH-1R Agonist Activation % (rat MCH-1R [2]): 6%
- EC50 (human MCH-2R [3]): > 10000 nM
- MCH-2R Agonist Activation % (human MCH-2R [3]): 14%

SMILES: CSCC[C@@H]1NC(=O)[C@@H](NC(=O)CCCCNC(=N)N)CSSC[C@@H](C(N)=O)NC(=O)CCCNC(=O)CCCNC(=O)[C@H](Cc2ccc(O)cc2)NC(=O)[C@H](C(C)C)NC(=O)[C@H](CCCNC(=N)N)NC(=O)CNC(=O)[C@H](CC(C)C)NC1=O [SEQ. ID. NO. 13]
- IC50 (rat MCH-1R [4]): 6.84 nM
- Kb (rat MCH-1R [4]): 3 nM
- IC50 (human MCH-1R): 49 nM
- EC50 (rat MCH-1R [2]): > 10000 nM
- MCH-1R Agonist Activation % (rat MCH-1R [2]): 3.5%
- EC50 (human MCH-2R [3]): > 10000 nM
- MCH-2R Agonist Activation % (human MCH-2R [3]): 35%

SMILES: CSCC[C@@H]1NC(=O)[C@@H](NC(=O)CCCCNC(=N)N)CSSC[C@@H](C(=O)O)NC(=O)CCCCNC(=O)CCCCNC(=O)[C@H](Cc2ccc(O)cc2)NC(=O)[C@H](C(C)C)NC(=O)[C@H](CCCNC(=N)N)NC(=O)CNC(=O)[C@H](CC(C)C)NC1=O [SEQ. ID. NO. 18]
- IC50 (rat MCH-1R [4]): 75.7 nM
- Kb (rat MCH-1R [4]): 32.9 nM
- IC50 (human MCH-1R): 290 nM
- EC50 (rat MCH-1R [2]): > 10000 nM
- MCH-1R Agonist Activation % (rat MCH-1R [2]): 3.8%
- EC50 (human MCH-2R [3]): > 10000 nM
- MCH-2R Agonist Activation % (human MCH-2R [3]): 38%

Second part, the compound after the results:

- IC50 (human MCH-2R [1]): 350 nM
- IC50 (human MCH-1R): 3.7 nM
- EC50 (rat MCH-1R [2]): 587 nM
- MCH-1R Agonist Activation % (rat MCH-1R [2]): 82%
- EC50 (human MCH-2R [3]): > 10000 nM
SMILES: CSCC[C@@H]1NC(=O)[C@@H](NC(=O)[C@H](CCCNC(=N)N)NC(C)=O)CSSC[C@@H](C(N)=O)NC(=O)[C@@H]2CCCN2C(=O)[C@H](CCCNC(=N)N)NC(=O)[C@H](Cc2ccc(O)cc2)NC(=O)[C@H](C(C)C)NC(=O)[C@H](CCCNC(=N)N)NC(=O)CCCCNC(=O)CCCCNC1=O [SEQ. ID. NO. 3] (Ac-RCM[Ava][Ava]RVYRPC-NH2; disulfide 2-11; C-terminus assumed)

- IC50 (rat MCH-1R [4]): 10.6 nM
- Kb (rat MCH-1R [4]): 4.6 nM
- IC50 (human MCH-1R): 88 nM
- EC50 (rat MCH-1R [2]): > 10000 nM
- MCH-1R Agonist Activation % (rat MCH-1R [2]): 3%
- EC50 (human MCH-2R [3]): > 10000 nM
- MCH-2R Agonist Activation % (human MCH-2R [3]): 16%
SMILES: CSCC[C@@H]1NC(=O)[C@@H](NC(=O)[C@H](CCCNC(=N)N)NC(C)=O)CSSC[C@@H](C(N)=O)NC(=O)CCCCNC(=O)CCCCNC(=O)[C@H](Cc2ccc(O)cc2)NC(=O)[C@H](C(C)C)NC(=O)[C@H](CCCNC(=N)N)NC(=O)CCCCNC(=O)CCCCNC1=O [SEQ. ID. NO. 30] (Ac-RCM[Ava][Ava]RVY[Ava][Ava]C-NH2; disulfide 2-11 (inferred); C-terminus assumed)
